Measurements reported in PubChem BioAssay (NCI).
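Cells were grown in 96-well plates and exposed to each compound for 48 hours at five concentrations; endpoints were interpolated linearly between bracketing concentrations, or set to the highest concentration if not reached. Definition used: TGI = concentration required for complete inhibition of growth.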

Experiments:
Experiment in all cases: NCI-60 cell line screen, 48 h
[1] = test system: HOP-18 NSCLC
[2] = test system: SNB-78 CNS
[3] = test system: DMS 114 small cell lung
[4] = test system: KM20L2 colon
[5] = test system: RXF-631 renal
[6] = test system: XF 498 CNS

| SMILES | TGI [1] [µM] | TGI [2] [µM] | TGI [3] [µM] | TGI [4] [µM] | TGI [5] [µM] | TGI [6] [µM] |
| --- | --- | --- | --- | --- | --- | --- |
| COc1cc(/C=N/N=C(\N)NO)c([N+](=O)[O-])cc1OC | > 100 | > 100 | 46.2 | > 100 | > 100 | – |
| CC[C@]12C=CCN3CCC4(c5cc([C@@]6(C(=O)OC)CC7CN(CCc8c6[nH]c6ccccc86)CC6CCCCC67)c(OC)cc5N(C)C4[C@](O)(C(=O)OC)C1OC(C)=O)[C@@H]32 (stereo not given in full) | – | 18.8 | < 0.01 | < 0.01 | – | 9.12 |
| CC(C)(C)N=NC(C)(C)N=C=O | > 100 | > 100 | > 100 | > 100 | – | > 100 |
| c1cncc(CSc2nc3ccccc3nc2-c2cccs2)c1 | > 100 | > 100 | – | – | – | > 100 |
| CN(C)CCCNC(=O)N/N=C/c1ccccc1 | > 100 | > 100 | > 100 | – | – | > 100 |
| O=[N+]([O-])c1ccc(-c2csc(=[N+]3CCCCC3)s2)cc1 | > 100 | > 100 | 8.03 | > 100 | > 100 | 48.1 |
| CNC(=O)CN(CC(=O)O)C(=O)NC | – | > 100 | – | – | > 100 | > 100 |
| O=C1Nc2cc(F)ccc2C1=O | > 100 | > 100 | > 100 | > 100 | – | > 100 |
